{"source": "paper PMC7403315", "about": "“Cyclic peptide FXII inhibitor provides safe anticoagulation in a thrombosis model and in artificial lungs” (Nature Communications, 2020)", "target": "T1, recombinant pig FXIIa (Sus scrofa, UniProt O97507)", "T1 construct": "of FXII into a heavy chain (HC) and a light chain (LC); made in house; host or cells: CHO cells", "T1 sequence (O97507 20-616)": "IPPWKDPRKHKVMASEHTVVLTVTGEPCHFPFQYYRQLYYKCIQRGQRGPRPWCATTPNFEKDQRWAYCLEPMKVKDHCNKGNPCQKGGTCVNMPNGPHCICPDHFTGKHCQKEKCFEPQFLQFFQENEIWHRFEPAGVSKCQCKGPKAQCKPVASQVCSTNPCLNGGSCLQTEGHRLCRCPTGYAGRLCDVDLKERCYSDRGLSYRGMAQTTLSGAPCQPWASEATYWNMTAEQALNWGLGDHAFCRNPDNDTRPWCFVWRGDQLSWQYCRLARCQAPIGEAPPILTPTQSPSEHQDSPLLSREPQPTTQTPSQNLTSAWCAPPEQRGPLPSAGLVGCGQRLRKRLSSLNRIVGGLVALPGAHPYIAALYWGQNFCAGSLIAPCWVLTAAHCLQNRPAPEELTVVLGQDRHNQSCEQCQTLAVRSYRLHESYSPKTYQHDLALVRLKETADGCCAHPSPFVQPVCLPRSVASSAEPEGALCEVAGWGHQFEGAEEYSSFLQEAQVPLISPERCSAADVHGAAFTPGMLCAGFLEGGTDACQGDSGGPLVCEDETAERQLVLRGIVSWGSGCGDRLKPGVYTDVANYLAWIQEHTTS", "assay": "Inhibition of recombinant FXIIa (rFXIIa)", "type": "biochemical", "from_the_text": "The protein sequences for human, rabbit and pig factor XII were taken from the following database entries: human FXII: UniProtKB - P00748; rabbit FXII: NCBI RefSeq - XP_008253687.1; pig FXII: UniProtKB - O97507. The sequences are shown in the Supplementary Methods. DNA encoding the full-length proteins were ordered from Eurofins Genomics. The codons in these sequences were optimized for mammalian expression using the codon optimization tool from Integrated DNA Technologies (IDT). In addition to the FXII gene, the ordered DNA sequences encode a C-terminal GSGS-linker, a His6-tag and a stop codon, and they are flanked by NheI (GCTAGC) and a HindIII (AAGCTT) restriction sites. The entire DNA sequences are provided in the supporting materials. The DNA sequences were cloned into the pEXPR-IBA42 vector downstream of a BM40 signal sequence for secreted expression in mammalian cells. The ligated vector was transformed into DH5 alpha electrocompetent E. coli cells. Plasmid DNA from single clones was sequenced by Sanger sequencing.\n1.5 mg plasmid DNA was transfected into 500 ml CHO cells (Thermo Fisher Scientific) in cell suspension culture using polyethylenimine (PEI). Cells were incubated for seven days at 37 °C, 5% CO2 under shaking conditions. The cells were removed by centrifugation and the secreted protein was purified from the supernatant using a nickel-charged immobilized metal affinity chromatography (IMAC) column (5 ml HisTrap FF Crude, GE Healthcare). The column was equilibrated with buffer containing 15 mM imidazole, 100 mM NaCl, 20 mM Tris-HCl, pH 7.4. The pH of the cell culture supernatant was adjusted to 8.0 using NaOH. The supernatant was run through the column at a flow of 5 ml per min. The column was washed with 20 column volumes of equilibration buffer at a flow of 5 ml per min. The protein was eluted with 500 mM imidazole, 100 mM NaCl, 20 mM Tris-HCl, pH 7.4 at a flow of 5 ml per min. The buffer was subsequently exchanged to 100 mM NaCl, 20 mM Tris-HCl, pH 7.4 by three iterative steps of 10-fold dilution and 10-fold concentration using a 10,000 MWCO centrifugal concentrator. The concentration was determined by measuring absorption at 280 nm (ε = 100,000). For the activation of recombinant FXII, 10 μg protein was diluted to a total volume of 10 μl 100 mM NaCl, 20 mM Tris-HCl, pH 7.4 and further diluted with 10 μl of 2-fold concentrated assay buffer (300 mM NaCl, 20 mM MgCl2, 2 mM CaCl2, 20 mM Tris-HCl, 0.02% (v/v) Triton-X100, pH 7.4). Dextran sulfate 500 kDa (DXS500) was added to a final concentration of 0.2 μg μl^−1 and incubated for 1 hour at 37 °C. 5 μg protein was analyzed by SDS-PAGE under reducing conditions.\nProtease inhibition assays\nThe inhibitory activity of peptides was determined by measuring the residual protease activity with a fluorogenic substrate. The assay was performed in buffer containing 10 mM Tris-Cl, pH […]\n1% (v/v) DMSO in a volume of 150 µl. FXIIa activity was measured with the fluorogenic substrate Boc-Gln-Gly-Arg-AMC (Bachem) at a final concentration of 50 µM. Mouse α-FXIIa (Molecular Innovations cat # MFXIIA) and human β-FXIIa (Molecular Innovations cat # HFXIIAB) were used at final concentrations of 0.4 nM. The reaction was pipetted as follows: 50 µl of bicyclic peptide in assay buffer were added to 50 µl of FXIIa in assay buffer and incubated for 10 minutes at 25°C before 50 µl of 150 µM fluorogenic substrate in assay buffer were added to measure the residual protease activity with an Infinite M200Pro fluorescence plate reader (excitation at 368 nm, emission at 467 nm; Tecan) for a period of 30 minutes with a read every minute at 25°C. The Tecan software i-control (version 1.1) was used for data analysis. Stock solutions of 1 mM bicyclic peptide were prepared by either dissolving the unpurified cyclization reaction with water or by dissolving purified and lyophilized peptide in water. The bicyclic peptides were serially diluted two-fold using assay buffer. Sigmoidal curves were fitted to the […]", "note": "Like-named read-outs stand apart in the source and are kept apart here. Starred links: 1 amine or outer side, 2 acyl side, 3 side chain; linkers in the order of their positions; H or OH if unused. Positions of bridges follow the written chain, without caps; N, C: chain ends. Non-standard residues stand in square brackets, D forms with d. Residues, ends and D or L forms follow the SMILES beside them. TATA = O=C(CC[*:1])N1CN(C(=O)CC[*:2])CN(C(=O)CC[*:3])C1; Phe(4-F) = N[C@@H](Cc1ccc(F)cc1)C(=O)O; β3hR = N=C(N)NCCC[C@H](N)CC(=O)O", "data": [{"smiles": "CC(C)C[C@@H]1NC(=O)[C@H](CCC(N)=O)NC(=O)[C@H](CCCNC(=N)N)NC(=O)[C@@H]2CSCCC(=O)N3CN(CN(C3)C(=O)CCSC[C@H](NC(=O)[C@@H](N)CCCNC(=N)N)C(=O)N[C@@H](Cc3ccccc3)C(=O)N[C@@H](CCCNC(=N)N)C(=O)N[C@@H](CC(C)C)C(=O)N3CCC[C@H]3C(=O)N2)C(=O)CCSC[C@@H](C(=O)N[C@@H](CCCNC(=N)N)C(N)=O)NC(=O)[C@H](CCCNC(=N)N)NC1=O", "note": "[FXII618]", "values": [{"measurement": "remaining activity at 0.00195312 µM", "setting": "Recombinant pig FXII, peptide 1.95312 nM, individual plates, read-out: Residual activity (%)", "value": 102, "unit": "%"}, {"measurement": "remaining activity at 0.00390625 µM", "setting": "Recombinant pig FXII, peptide 3.90625 nM, individual plates, read-out: Residual activity (%)", "value": 103, "unit": "%"}, {"measurement": "remaining activity at 0.0078125 µM", "setting": "Recombinant pig FXII, peptide 7.8125 nM, individual plates, read-out: Residual activity (%)", "value": 95.8, "unit": "%"}, {"measurement": "remaining activity at 0.015625 µM", "setting": "Recombinant pig FXII, peptide 15.625 nM, individual plates, read-out: Residual activity (%)", "value": 92.8, "unit": "%"}, {"measurement": "remaining activity at 0.03125 µM", "setting": "Recombinant pig FXII, peptide 31.25 nM, individual plates, read-out: Residual activity (%)", "value": 87.6, "unit": "%"}, {"measurement": "remaining activity at 0.0625 µM", "setting": "Recombinant pig FXII, peptide 62.5 nM, individual plates, read-out: Residual activity (%)", "value": 82.2, "unit": "%"}, {"measurement": "remaining activity at 0.125 µM", "setting": "Recombinant pig FXII, peptide 125 nM, individual plates, read-out: Residual activity (%)", "value": 71, "unit": "%"}, {"measurement": "remaining activity at […]", "setting": "Recombinant pig FXII, peptide 250 nM, individual plates, read-out: Residual activity (%)", "value": 54.9, "unit": "%"}, {"measurement": "remaining activity at 0.5 µM", "setting": "Recombinant pig FXII, peptide 500 nM, individual plates, read-out: Residual activity (%)", "value": 38, "unit": "%"}, {"measurement": "remaining activity at 1 µM", "setting": "Recombinant pig FXII, peptide 1000 nM, individual plates, read-out: Residual activity (%)", "value": 21.5, "unit": "%"}, {"measurement": "remaining activity at 2 µM", "setting": "Recombinant pig FXII, peptide 2000 nM, individual plates, read-out: Residual activity (%)", "value": 14.6, "unit": "%"}]}, {"smiles": "CC(C)C[C@@H]1NC(=O)[C@H](CCC(N)=O)NC(=O)[C@H](Cc2c[nH]cn2)NC(=O)[C@@H]2CSCCC(=O)N3CN(CN(C3)C(=O)CCSC[C@H](NC(=O)[C@@H](CO)NC(=O)[C@H](N)CCCNC(=N)N)C(=O)N[C@@H](Cc3ccc(F)cc3)C(=O)N[C@@H](CCCNC(=N)N)C(=O)N[C@@H](CC(C)C)C(=O)N3CCC[C@H]3C(=O)N2)C(=O)CCSC[C@@H](C(N)=O)NC(=O)C[C@H](CCCNC(=N)N)NC1=O", "note": "[FXII900] (H-[dR][dS]C[Phe(4-F)]RLPCHQL[β3hR]C-NH2; linker 3-8-13 via TATA)", "values": [{"measurement": "Ki", "value": "17.4 ± 1.4", "unit": "nM"}, {"measurement": "remaining activity at 0.0005 µM", "setting": "read-out: Residual activity (%), Recombinant pig FXII, peptide 0.5 nM, individual plates", "value": 99.6, "unit": "%"}, {"measurement": "remaining activity at 0.001 µM", "setting": "read-out: Residual activity (%), Recombinant pig FXII, peptide 1 nM, individual plates", "value": 93.5, "unit": "%"}, {"measurement": "remaining activity at 0.002 µM", "setting": "read-out: Residual activity (%), Recombinant pig FXII, peptide 2 nM, individual plates", "value": 91.1, "unit": "%"}, {"measurement": "remaining activity at 0.004 µM", "setting": "read-out: Residual activity (%), Recombinant pig FXII, peptide 4 nM, individual plates", "value": 83.3, "unit": "%"}, {"measurement": "remaining activity at 0.008 µM", "setting": "read-out: Residual activity (%), Recombinant pig FXII, peptide 8 nM, individual plates", "value": 71.6, "unit": "%"}, {"measurement": "remaining activity at […]", "setting": "read-out: Residual activity (%), Recombinant pig FXII, peptide 16 nM, individual plates", "value": 55.5, "unit": "%"}, {"measurement": "remaining activity at […]", "setting": "read-out: Residual activity (%), Recombinant pig FXII, peptide 32 nM, individual plates", "value": 38.2, "unit": "%"}, {"measurement": "remaining activity at 0.064 µM", "setting": "read-out: Residual activity (%), Recombinant pig FXII, peptide 64 nM, individual plates", "value": 23.5, "unit": "%"}, {"measurement": "remaining activity at 0.128 µM", "setting": "read-out: Residual activity (%), Recombinant pig FXII, peptide 128 nM, individual plates", "value": 11.5, "unit": "%"}, {"measurement": "remaining activity at 0.256 µM", "setting": "read-out: Residual activity (%), Recombinant pig FXII, peptide 256 nM, individual plates", "value": 7.16, "unit": "%"}, {"measurement": "remaining activity at 0.512 µM", "setting": "read-out: Residual activity (%), Recombinant pig FXII, peptide 512 nM, individual plates", "value": 5.15, "unit": "%"}]}]}
